Data: US9834542B2, “LXR modulators” (BRISTOL-MYERS SQUIBB COMPANY, priority 2013, dated 2017)

Target: T1, LXRβ (Homo sapiens, UniProt P55055)
T1 construct: Co-transfection expression plasmids, comprising full-length LXRα (pCMX-h LXRα[…] or LXRβ (pCMX-hLXRβ)); expressed in transfected cells; host or cells: CV-1 African Green Monkey Kidney Cells
T1 sequence (P55055 1-460): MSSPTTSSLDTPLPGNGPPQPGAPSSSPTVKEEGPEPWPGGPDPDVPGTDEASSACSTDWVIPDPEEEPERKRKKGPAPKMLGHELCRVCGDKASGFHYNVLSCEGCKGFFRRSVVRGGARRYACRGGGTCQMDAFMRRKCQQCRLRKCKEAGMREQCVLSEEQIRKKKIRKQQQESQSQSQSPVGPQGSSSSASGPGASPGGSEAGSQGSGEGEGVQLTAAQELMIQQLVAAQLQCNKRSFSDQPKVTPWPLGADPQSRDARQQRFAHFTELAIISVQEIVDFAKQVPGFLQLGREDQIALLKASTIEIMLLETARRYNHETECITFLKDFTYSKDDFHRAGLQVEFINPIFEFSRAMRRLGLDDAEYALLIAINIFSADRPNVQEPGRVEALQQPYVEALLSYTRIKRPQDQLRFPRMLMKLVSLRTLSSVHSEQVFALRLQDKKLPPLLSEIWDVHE
T1 sequence (P19793 1-462 partner): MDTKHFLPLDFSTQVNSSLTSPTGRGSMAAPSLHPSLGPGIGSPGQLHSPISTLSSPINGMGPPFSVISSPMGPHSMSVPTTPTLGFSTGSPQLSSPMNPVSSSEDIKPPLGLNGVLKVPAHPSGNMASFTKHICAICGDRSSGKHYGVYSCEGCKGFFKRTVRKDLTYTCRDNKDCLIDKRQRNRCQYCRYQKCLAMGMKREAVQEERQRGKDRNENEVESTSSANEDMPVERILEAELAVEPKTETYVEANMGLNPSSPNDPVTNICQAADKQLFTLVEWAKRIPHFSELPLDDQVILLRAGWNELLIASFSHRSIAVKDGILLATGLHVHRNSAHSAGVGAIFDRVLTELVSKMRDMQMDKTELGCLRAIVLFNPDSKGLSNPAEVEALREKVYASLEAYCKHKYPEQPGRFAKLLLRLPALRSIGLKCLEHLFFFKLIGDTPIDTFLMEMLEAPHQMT
Test: Co-transfection assay (LXRE luciferase reporter), LXRβ
Assay type: cell-based
Conditions: for EC50: CV-1 cells transfected with pCMX-hLXRβ and LXREx1-Tk-Luciferase, 20 hours incubation; for Emax: LXRβ co-transfection, relative to high control 1-(2,4-difluorobenzyl)-2-oxo-6-(4-phenoxyphenyl)-4-(trifluoromethyl)-1,2-dihydropyridine-3-carbonitrile, read-out: % Efficacy
How it was run: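 Cell-based LXRβ agonism measured as LXRE-luciferase induction in transiently transfected CV-1 cells after 20 h treatment. Potency is the curve-fit EC50; efficacy is expressed as percent of a full-agonist control's maximal response.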

Row | EC50 [nM] | Emax [%] | Compound
1 | 115 | 79 | Cc1nc(-c2cc(-c3cccc(S(C)(=O)=O)c3)ccc2-n2cc(C(F)(F)F)nc2C)c(-c2ccc(F)c(F)c2)o1 [Example 511, 5-(3,4-difluorophenyl)-2-methyl-4-(4-(2-methyl-4-(trifluoromethyl)-1H-imidazol-1-yl)-3′-(methylsulfonyl)biphenyl-3-yl)oxazole]
2 | 726 | 39 | Cc1nc(-c2cc(-c3ccc(C)c(S(C)(=O)=O)c3)ccc2-n2cc(C(F)(F)F)nc2C)c(-c2ccc(C(F)(F)F)nc2Cl)o1 [Example 476, 5-(2-chloro-6-(trifluoromethyl)pyridin-3-yl)-2-methyl-4-(4′-methyl-4-(2-methyl-4-(trifluoromethyl)-1H-imidazol-1-yl)-3′-(methylsulfonyl)biphenyl-3-yl)oxazole]
3 | 2050 | 24 | Cc1nc(C(F)F)c(C)n1-c1ccc(-c2cccc(S(C)(=O)=O)c2)cc1-n1nncc1-c1ccc(Cl)cc1 [Example 230, 5-(4-chlorophenyl)-1-(4-(4-(difluoromethyl)-2,5-dimethyl-1H-imidazol-1-yl)-3′-(methylsulfonyl)-[1,1′-biphenyl]-3-yl)-1H-1,2,3-triazole]
4 | 218 | 61 | Cc1nc(C(F)(F)F)cn1-c1ccc(-c2cccc(S(C)(=O)=O)c2)cc1-c1nc(C(F)(F)F)cn1-c1ccc2c(c1)OC(F)(F)O2 [Example 640, 1-(2,2-difluorobenzo[d][1,3]dioxol-5-yl)-2-(4-(2-methyl-4-(trifluoromethyl)-1H-imidazol-1-yl)-3′-(methylsulfonyl)biphenyl-3-yl)-4-(trifluoromethyl)-1H-imidazole]
5 | 2540 | 64 | Cc1nc(C(F)(F)F)cn1-c1ccc(-c2cccc(S(C)(=O)=O)c2)cc1-n1nncc1-c1ccc(C#N)cc1 [Example 47, 4-(1-{3′-(methylsulfonyl)-4-[2-methyl-4-(trifluoromethyl)-1H-imidazol-1-yl]biphenyl-3-yl}-1H-1,2,3-triazol-5-yl)benzonitrile]
6 | 349 | 77 | Cc1nc(-c2cc(-c3cccc(S(C)(=O)=O)c3)ccc2-n2cc(C(F)(F)F)nc2C)c(-c2ccc(F)c(C#N)c2)o1 [Example 506, 2-fluoro-5-(2-methyl-4-(4-(2-methyl-4-(trifluoromethyl)-1H-imidazol-1-yl)-3′-(methylsulfonyl)biphenyl-3-yl)oxazol-5-yl)benzonitrile]
7 | 85 | 99 | Cc1nc(C(F)(F)F)cn1-c1ccc(-c2cc(F)c(CO)c(S(C)(=O)=O)c2)cc1-n1nncc1-c1ccc(Cl)c(Cl)c1 [Example 81, {3′-[5-(3,4-dichlorophenyl)-1H-1,2,3-triazol-1-yl]-3-fluoro-5-(methylsulfonyl)-4′-[2-methyl-4-(trifluoromethyl)-1H-imidazol-1-yl]biphenyl-4-yl}methanol]
8 | 574 | 83 | Cc1nc(C(F)(F)F)cn1-c1c(Cl)cc(-c2cccc(S(C)(=O)=O)c2)cc1-n1nncc1-c1ccc(OC(F)(F)F)cc1 [Example 195, 1-{5-chloro-3′-(methylsulfonyl)-4-[2-methyl-4-(trifluoromethyl)-1H-imidazol-1-yl]biphenyl-3-yl}-5-{4-[(trifluoromethyl)oxy]phenyl}-1H-1,2,3-triazole]
9 | 156 | 60 | COCCc1nc(-c2cc(-c3cccc(S(C)(=O)=O)c3)ccc2-n2cc(C(F)(F)F)nc2C)c(-c2ccc(Cl)cc2Cl)o1 [Example 553, 5-(2,4-dichlorophenyl)-2-(2-methoxyethyl)-4-(4-(2-methyl-4-(trifluoromethyl)-1H-imidazol-1-yl)-3′-(methylsulfonyl)-[1,1′-biphenyl]-3-yl)oxazole]
10 | 42 | 86 | Cc1nc(-c2cc(-c3ccc(CO)c(S(C)(=O)=O)c3)ccc2-n2cc(C(F)(F)F)nc2C)c(-c2ccc(OC(F)(F)F)cc2)o1 [Example 522, (4′-(2-methyl-4-(trifluoromethyl)-1H-imidazol-1-yl)-3′-(2-methyl-5-(4-(trifluoromethoxy)phenyl)oxazol-4-yl)-3-(methylsulfonyl)-[1,1′-biphenyl]4-yl)methanol]
11 | 1770 | 74 | Cc1nc(C(F)(F)F)cn1-c1ccc(-c2ccc(CO)c(S(C)(=O)=O)c2)cc1-c1nc(CCO)oc1-c1ccc(OC(F)(F)F)cc1 [Example 526]
12 | 122 | 75 | Cc1nc(C(F)(F)F)cn1-c1ccc(-c2cccc(S(C)(=O)=O)c2)cc1-c1ccnn1-c1ccc(OC(F)(F)F)cc1 [Example 289, 5-{3′-(methylsulfonyl)-4-[2-methyl-4-(trifluoromethyl)-1H-imidazol-1-yl]biphenyl-3-yl}-1-{4-[(trifluoromethyl)oxy]phenyl}-1H-pyrazole]
13 | 127 | 81 | Cc1nc(C(F)(F)F)cn1-c1c(F)cc(-c2cccc(S(C)(=O)=O)c2)cc1-n1nncc1-c1ccc(OC(F)(F)F)cc1 [Example 201, 1-{5-fluoro-3′-(methylsulfonyl)-4-[2-methyl-4-(trifluoromethyl)-1H-imidazol-1-yl]biphenyl-3-yl}-5-{4-[(trifluoromethyl)oxy]phenyl)-1H-1,2,3-triazole]
14 | 650 | 67 | Cc1nc(C(F)(F)F)cn1-c1ccc(-c2cc(F)c(CO)c(S(C)(=O)=O)c2)cc1-c1nc(CCO)oc1-c1ccc(OC(F)(F)F)cc1 [Example 525, 2-(4-(3′-fluoro-4′-(hydroxymethyl)-4-(2-methyl-4-(trifluoromethyl)-1H-imidazol-1-yl)-5′-(methylsulfonyl)-[1,1′-biphenyl]-3-yl)-5-(4-(trifluoromethoxy)phenyl)oxazol-2-yl)ethanol]
15 | 265 | 87 | Cc1nc(C(F)(F)F)cn1-c1ccc(-c2cccc(S(C)(=O)=O)c2)cc1-n1nncc1-c1ccc(OC(F)(F)F)cc1F [Example 61, 5-{2-fluoro-4-[(trifluoromethyl)oxy]phenyl}-1-{3′-(methylsulfonyl)-4-[2-methyl-4-(trifluoromethyl)-1H-imidazol-1-yl]biphenyl-3-yl}-1H-1,2,3-triazole]
16 | 174 | 77 | Cc1nc(-c2cc(-c3cc(F)c(CO)c(S(C)(=O)=O)c3)ccc2-n2cc(C(F)(F)F)nc2C)c(-c2ccc(Cl)c(OC(F)F)c2)o1 [Example 459, (3′-(5-(4-chloro-3-(difluoromethoxy)phenyl)-2-methyloxazol-4-yl)-3-fluoro-4′-(2-methyl-4-(trifluoromethyl)-1H-imidazol-1-yl)-5-(methylsulfonyl)biphenyl-4-yl)methanol]
17 | 488 | 72 | COc1ccc(-c2cnnn2-c2cc(-c3cccc(S(C)(=O)=O)c3)ccc2-n2cc(C(F)(F)F)nc2C)cc1C(F)(F)F [Example 74, 5-[4-(methyloxy)-3-(trifluoromethyl)phenyl]-1-{3′-(methylsulfonyl)-4-[2-methyl-4-(trifluoromethyl)-1H-imidazol-1-yl]biphenyl-3-yl}-1H-1,2,3-triazole]
18 | 1770 | 63 | Cc1nc(C(F)(F)F)cn1-c1ccc(-c2cc(F)c(CO)c(S(C)(=O)=O)c2)cc1-n1nncc1C(C)(C)c1ccc(Cl)cc1 [Example 223, (3′-(5-(2-(4-chlorophenyl)propan-2-yl)-1H-1,2,3-triazol-1-yl)-3-fluoro-4′-(2-methyl-4-(trifluoromethyl)-1H-imidazol-1-yl)-5-(methylsulfonyl)-[1,1′-biphenyl]-4-yl)methanol]
19 | 280 | 50 | CCOc1ncc(-c2oc(C)nc2-c2cc(-c3ccc(C)c(S(C)(=O)=O)c3)ccc2-n2cc(C(F)(F)F)nc2C)cc1F [Example 473, 5-(6-ethoxy-5-fluoropyridn-3-yl)-2-methyl-4-(4′-methyl-4-(2-methyl-4-(trifluoromethyl)-1H-imidazol-1-yl)-3′-(methylsulfonyl)biphenyl-3-yl)oxazole]
20 | 38 | 32 | Cc1nc(-c2cc(-c3cc(F)c(CO)c(S(C)(=O)=O)c3)ccc2-n2cc(C(F)(F)F)nc2C)c(-c2cccc(OC(F)(F)F)c2)o1 [Example 545, (3-fluoro-4′-(2-methyl-4-(trifluoromethyl)-1H-imidazol-1-yl)-3′-(2-methyl-5-(3-(trifluoromethoxy)phenyl)oxazol-4-yl)-5-(methylsulfonyl)-[1,1′-biphenyl]-4-yl)methanol]
